Test results as given in patent US20230203063A1, “TRICYCLIC PYRIDONES AND PYRIMIDONES” (Erasca, Inc., priority 2019, published 2023).

target: T1, mutant G12C K-RAS (Homo sapiens, UniProt P01116, G12C); assay: covalent adduct formation (CAF) with mutant G12C K-RAS; type: binding; design: covalent adduct formation (CAF): unit not given here; settings: Table 6; 10 uM, 1 h
T1 construct: made in house; host or cells: E. coli BL21
Experimental: Embodiments disclosed herein are further illustrated by the following examples in Tables 1-4 and the Examples hereinbelow. The Tables indicate the compound number, structure, the observed mass spectral molecular weight peak, and covalent adduct formation (CAF) with a mutant G12C K-RAS after 60 minutes at a concentration of 10 micromolar.

SMILES | % CAF @ 10 uM, 1 h [%]
C=CC(=O)N1CCN(c2nc(=O)n3c4c(c(-c5c(O)cccc5F)c(Cl)cc24)OC[C@H]3CN2CCOCC2)[C@@H](C)C1 [Example 199, (3R,10R)-7-((S)-4-aciyloyl-2-methylpiperazin-1-yl)-9-chloro-10-(2-fluoro-6-hydroxyphenyl)-3-(morpholinomethyl)-2,3-dihydro-5H-[1,4]oxazino[2,3,4-ij]quinazolin-5-one] | 0
C=CC(=O)N1C[C@H](C)N(c2nc(=O)n3c4c(c(-c5c(F)cccc5C(F)F)ccc24)OCC3)C[C@H]1C [Example 200, 7-((2S,5R)-4-acryloyl-2,5-dimethylpiperazin-1-yl)-10-(2-(difluoromethyl)-6-fluorophenyl)-2,3-dihydro-5H-[1,4]oxazino[2,3,4-ij]quinazolin-5-one] | 0
C=CC(=O)N1C[C@H](C)N(c2nc(=O)n3c4c(c(-c5c(F)ccc6[nH]cnc56)ccc24)OCC3)C[C@H]1C [Example 201, 7-((2S,5R)-4-acryloyl-2,5-dimethylpiperazin-1-yl)-10-(5-fluoro-1H-benzo[d]imidazol-4-yl)-2,3-dihydro-5H-[1,4]oxazino[2,3,4-ij]quinazolin-5-one] | 0
C=CC(=O)N1C[C@H](C)N(c2nc(=O)n3c4c(c(-c5c(C)ccc6[nH]nnc56)ccc24)OCC3)C[C@H]1C [Example 219, 7-((2S,5R)-4-acryloyl-2,5-dimethylpiperazin-1-yl)-10-(5-methyl-1H-benzo[d][1,2,3]triazol-4-yl)-2,3-dihydro-5H-[1,4]oxazino[2,3,4-ij]quinazolin-5-one] | 0
C=CC(=O)N1C[C@H](C)N(c2nc(=O)n3c4c(c(-c5c(O)cccc5F)c(Cl)cc24)OC[C@@H]3CN2CCC(F)(F)C2)C[C@H]1C [Example 220, (3S,10R)-7-((2S,5R)-4-acryloyl-2,5-dimethylpiperazin-1-yl)-9-chloro-3-((3,3-difluoropyrrolidin-1-yl)methyl)-10-(2-fluoro-6-hydroxyphenyl)-2,3-dihydro-5H-[1,4]oxazino[2,3,4-ij]quinazolin-5-one] | 0
C=CC(=O)N1C[C@H](C)N(c2nc(=O)n3c4c(c(-c5c(F)ccc6[nH]nnc56)ccc24)OCC3)C[C@H]1C [Example 223, 7-((2S,5R)-4-acryloyl-2,5-dimethylpiperazin-1-yl)-10-(5-fluoro-1H-benzo[d][1,2,3]triazol-4-yl)-2,3-dihydro-5H-[1,4]oxazino[2,3,4-ij]quinazolin-5-one] | 0
C=CC(=O)N1C[C@H](C)N(c2nc(=O)n3c4c(c(-c5c(F)ccc6cc[nH]c(=O)c56)ccc24)OCC3)C[C@H]1C [Example 224, 7-((2S,5R)-4-acryloyl-2,5-dimethylpiperazin-1-yl)-10-(7-fluoro-1-oxo-1,2-dihydroisoquinolin-8-yl)-2,3-dihydro-5H-[1,4]oxazino[2,3,4-ij]quinazolin-5-one] | 0
C=CC(=O)N1C[C@H](C)N(c2nc(=O)n3c4c(c(-c5c(F)ccc6c5C(=O)NC6)ccc24)OCC3)C[C@H]1C [Example 231, 7-((2S,5R)-4-acryloyl-2,5-dimethylpiperazin-1-yl)-10-(5-fluoro-3-oxoisoindolin-4-yl)-2,3-dihydro-5H-[1,4]oxazino[2,3,4-ij]quinazolin-5-one] | 0
C=CC(=O)N1C[C@H](C)N(c2nc(=O)n3c4c(c(-c5c(C)ccc6[nH]ncc56)c(Cl)cc24)OC[C@@H]3CCCN2C3CCC2COC3)C[C@H]1C [Example 281, (3S,10S)-3-(3-(3-oxa-8-azabicyclo[3.2.1]octan-8-yl)propyl)-7-((2S,5R)-4-acryloyl-2,5-dimethylpiperazin-1-yl)-9-chloro-10-(5-methyl-1H-indazol-4-yl)-2,3-dihydro-5H-[1,4]oxazino [2,3,4-ij] quinazolin-5-one] | 0
C=CC(=O)N1C[C@H](C)N(c2nc(=O)n3c4c(c(-c5ccc(F)cc5F)c(Cl)cc24)OC[C@H]3CCCN2C3CCC2CN(C)C3)C[C@H]1C [Example 321, (3R)-7-((2S,5R)-4-acryloyl-2,5-dimethylpiperazin-1-yl)-9-chloro-10-(2,4-difluorophenyl)-3-(3-(3-methyl-3,8-diazabicyclo[3.2.1]octan-8-yl)propyl)-2,3-dihydro-5H-[1,4]oxazino [2,3,4-ij] quinazolin-5-one] | 71.2
C=CC(=O)N1C[C@H](C)N(c2nc(=O)n3c4c(c(-c5c(C)ccc6[nH]ncc56)c(Cl)cc24)OC[C@H]3CCCN2C[C@@H]3C[C@H]2CO3)C[C@H]1C [Example 325, (3R,10S)-3-(3-((1S,4S)-2-oxa-5-azabicyclo[2.2.1]heptan-5-yl)propyl)-7-((2S,5R)-4-acryloyl-2,5-dimethylpiperazin-1-yl)-9-chloro-10-(5-methyl-1H-indazol-4-yl)-2,3-dihydro-5H-[1,4]oxazino [2,3,4-ij] quinazolin-5-one] | 0

same assay, conditions: Table 7; 10 micromolar, after 60 minutes

SMILES | covalent adduct formation (CAF)
C=CC(=O)N1CCN(c2nc(=O)n3c4c(c(-c5c(F)cc(F)cc5F)c(Cl)cc24)SC[C@H]3CCCN2C[C@@H]3C[C@H]2CO3)[C@@H](C)C1 [Example 339, (R)-3-(3-((1S,4S)-2-oxa-5-azabicyclo-[2.2.1]heptan-5-yl)-propyl)-7-((S)-4-acryloyl-2-methyl-piperazin-1-yl)-9-chloro-10-(2,4,6-trifluorophenyl)-2H-[1,4]thiazino[2,3,4-ij]-quinazolin-5(3H)-one] | 96.6
C=CC(=O)N1CCN(c2nc(=O)n3c4c(c(-c5c(F)cc(F)cc5F)c(Cl)cc24)SC[C@@H]3CCCN2C[C@@H]3C[C@H]2CO3)[C@@H](C)C1 [Example 340, (S)-3-(3-((1S,4S)-2-oxa-5-azabicyclo-[2.2.1]heptan-5-yl)-propyl)-7-((S)-4-acryloyl-2-methyl-piperazin-1-yl)-9-chloro-10-(2,4,6-trifluorophenyl)-2H-[1,4]thiazino[2,3,4-ij]-quinazolin-5(3H)-one] | 96.9
C=CC(=O)N1CCN(c2nc(=O)n3c4c(c(-c5ccc(F)cc5F)c(Cl)cc24)SC[C@H]3CCCN2C[C@@H]3C[C@H]2CO3)[C@@H](C)C1 [Example 341, (3R)-3-(3-((1S,4S)-2-oxa-5-azabicyclo[2.2.1]heptan-5-yl)propyl)-7-((S)-4-acryloyl-2-methylpiperazin-1-yl)-9-chloro-10-(2,4-difluorophenyl)-2H-[1,4]thiazino[2,3,4-ij]quinazolin-5 (3H)-one] | 96.5
C=CC(=O)N1CCN(c2nc(=O)n3c4c(c(-c5ccc(F)cc5F)c(Cl)cc24)SC[C@@H]3CCCN2C[C@@H]3C[C@H]2CO3)[C@@H](C)C1 [Example 342, (3S)-3-(3-((1S,4S)-2-oxa-5-azabicyclo [2.2.1]heptan-5-yl)-propyl)-7-((S)-4-acryloyl-2-methyl-piperazin-1-yl)-9-chloro-10-(2,4-difluorophenyl)-2H-[1,4]thiazino[2,3,4-ij]-quinazolin-5(3H)-one] | 94.7
C=CC(=O)N1CCN(c2nc(=O)n3c4c(c(-c5c(F)cc(F)cc5F)c(Cl)cc24)SC[C@@H]3CC2CCN(C)CC2)[C@@H](C)C1 [Example 343, (S)-7-((S)-4-acryloyl-2-methylpiperazin-1-yl)-9-chloro-3-((1-methylpiperidin-4-yl)-methyl)-10-(2,4,6-trifluorophenyl)-2H-[1,4]thiazino[2,3,4-ij]-quinazolin-5(3H)-one] | 96.7
C=CC(=O)N1CCN(c2nc(=O)n3c4c(c(-c5c(F)cc(F)cc5F)c(Cl)cc24)SC[C@H]3CC2CCN(C)CC2)[C@@H](C)C1 [Example 344, (R)-7-((S)-4-acryloyl-2-methylpiperazin-1-yl)-9-chloro-3-((1-methylpiperidin-4-yl)-methyl)-10-(2,4,6-trifluorophenyl)-2H-[1,4]thiazino[2,3,4-ij]-quinazolin-5(3H)-one] | 94.8
C=CC(=O)N1CCN(c2nc(=O)n3c4c(c(-c5ccc(F)cc5F)c(Cl)cc24)SC[C@H]3CC2CCN(C)CC2)[C@@H](C)C1 [Example 345, (3R)-7-((S)-4-acryloyl-2-methylpiperazin-1-yl)-9-chloro-10-(2,4-difluorophenyl)-3-((1-methylpiperidin-4-yl)-methyl)-2H-[1,4]-thiazino-[2,3,4-ij]-quinazolin-5(3H)-one] | 82.4
C=CC(=O)N1CCN(c2nc(=O)n3c4c(c(-c5ccc(F)cc5F)c(Cl)cc24)SC[C@H]3CN2CCN(CC)CC2)[C@@H](C)C1 [Example 346, (3R)-7-((S)-4-acryloyl-2-methylpiperazin-1-yl)-9-chloro-10-(2,4-difluorophenyl)-3-((4-ethylpiperazin-1-yl)-methyl)-2H-[1,4]-thiazino[2,3,4-ij]-quinazolin-5(3H)-one] | 79.3
